Data on eight compounds can be found in PubChem BioAssay AID1259411 (Chemical Carcinogenesis Research Information System (CCRIS), 2018).

This data set deals with rodent carcinogenicity bioassays, tumor incidence. Description: CCRIS carcinogenicity studies. The method, boiled down:
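NCI-built, expert-reviewed records of carcinogenicity and related test outcomes (mutagenicity, tumor promotion/inhibition) compiled from published and report sources, historical span 1985-2011, not updated.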

Calls of active or inactive are those of the source. No rule for the calls is given here.

Regarding `Nc1cc(S(=O)(=O)[O-])cc2c1C(=O)/C(=N\Nc1ccc(-c3ccc(N/N=C4\C(=O)c5c(N)cc(S(=O)(=O)[O-])cc5C=C4S(=O)(=O)[O-])c(O)c3)cc1O)C(S(=O)(=O)[O-])=C2.[Cu].[Cu].[Na+].[Na+].[Na+].[Na+]`, the carcinogen call (Species: MOUSE, Strain/Sex: B6C3F1/FEMALE, Route: ORAL, Dose: 0, 1000, 3000, 10000 PPM IN DIET FOR 103 WK (STUDY DURATION: 106 WK), Dose: 0, 1000, 3000, 10000 PPM IN DIET FOR 103 WK (STUDY DURATION: 106 WK), Tumor Site: Type of Lesion: LIVER: HEPATOCELLULAR ADENOMA, HEPATOCELLULAR CARCINOMA) was “active; positive”; the carcinogen call (Species: MOUSE, Strain/Sex: B6C3F1/MALE, Route: ORAL, Dose: 0, 1000, 3000, 10000 PPM IN DIET FOR 103 WK (STUDY DURATION: 106 WK), Dose: 0, 1000, 3000, 10000 PPM IN DIET FOR 103 WK (STUDY DURATION: 106 WK), Tumor Site: Type of Lesion: LIVER: HEPATOCELLULAR ADENOMA, HEPATOCELLULAR CARCINOMA) is “active; positive”; the carcinogen call (Species: RAT, Strain/Sex: F344/FEMALE, Route: ORAL, Dose: 0, 1000, 3000, 10000 PPM IN DIET FOR 103 WK (STUDY DURATION: 105 WK), Dose: 0, 1000, 3000, 10000 PPM IN DIET FOR 103 WK (STUDY DURATION: 105 WK)) is “inactive; negative”; the carcinogen call (Species: RAT, Strain/Sex: F344/MALE, Route: ORAL, Dose: 0, 1000, 3000, 10000 PPM IN DIET FOR 103 WK (STUDY DURATION: 105 WK), Dose: 0, 1000, 3000, 10000 PPM IN DIET FOR 103 WK (STUDY DURATION: 105 WK), Tumor Site: Type of Lesion: PHARYNX: SQUAMOUS CELL PAPILLOMA OR SQUAMOUS CELL CARCINOMA) is “active; positive”.

Turning to `Cc1c(N)nc(C(CC(N)=O)NCC(N)C(N)=O)nc1C(=O)NC(C(=O)NC(C)C(O)C(C)C(=O)NC(C(=O)NCCc1nc(-c2nc(C(=O)NCCC[S+](C)C)cs2)cs1)C(C)O)C(O[C@@H]1O[C@@H](CO)[C@@H](O)[C@H](O)[C@@H]1O[C@H]1O[C@H](CO)[C@@H](O)[C@H](OC(N)=O)[C@@H]1O)c1cnc[nH]1` (some centres undefined), the carcinogen call is “active; positive” (Species: RAT, Strain/Sex: SPRAGUE-DAWLEY/FEMALE, Route: SUBCUTANEOUS, Dose: 0, 0.35, 0.7, 1.40, 2.8 MG/KG IN SALINE 1/WK FOR 10 WK THEN 1/2 WK FOR 52 WK OR FOR LIFETIME (STUDY DURATION: 650 D), Dose: 0, 0.35, 0.7, 1.40, 2.8 MG/KG IN SALINE 1/WK FOR 10 WK THEN 1/2 WK FOR 52 WK OR FOR LIFETIME (STUDY DURATION: 650 D), Tumor Site: Type of Lesion: KIDNEY: MALIGNANT OR BENIGN TUMOR, INJECTION SITE: MALIGNANT TUMOR) and “active; positive” (Species: RAT, Strain/Sex: SPRAGUE-DAWLEY/MALE, Route: SUBCUTANEOUS, Dose: 0, 0.35, 0.70, 1.40, 2.8 MG/KG IN SALINE 1/WK FOR 10 WK THEN 1/2 WK FOR 52 WK OR FOR LIFETIME (STUDY DURATION: 650 D), Dose: 0, 0.35, 0.70, 1.40, 2.8 MG/KG IN SALINE 1/WK FOR 10 WK THEN 1/2 WK FOR 52 WK OR FOR LIFETIME (STUDY DURATION: 650 D), Tumor Site: Type of Lesion: KIDNEY: MALIGNANT OR BENIGN TUMOR, INJECTION SITE: MALIGNANT TUMOR).

Turning to `O=[N+]([O-])c1ccc2ccc3c4ccccc4c([N+](=O)[O-])c4ccc1c2c43`, the carcinogen call was “active; positive” (Species: RAT, Strain/Sex: F344/MALE, Route: SUBCUTANEOUS IMPLANT, Dose: 0, 8, 40, 200, 1000 UG IN 50 µL BEESWAX/TRICAPRYLIN IMPLANTED FOR UP TO 45 WK (STUDY DURATION: 45 WK), Dose: 0, 8, 40, 200, 1000 UG IN 50 µL BEESWAX/TRICAPRYLIN IMPLANTED FOR UP TO 45 WK (STUDY DURATION: 45 WK), Tumor Site: Type of Lesion: IMPLANT SITE: TUMOR) and “active; positive” (Species: RAT, Strain/Sex: F344/MALE, Route: SUBCUTANEOUS, Dose: 0, 8, 40, 200, 1000 UG SUSPENDED IN BEESWAX/TRICAPRYLIN (1:1) ONCE (STUDY DURATION: LIFETIME), Dose: 0, 8, 40, 200, 1000 UG SUSPENDED IN BEESWAX/TRICAPRYLIN (1:1) ONCE (STUDY DURATION: LIFETIME), Tumor Site: Type of Lesion: SUBCUTANEOUS TISSUE: TUMOR).

For `C=CC(O)c1ccc2c(c1)OCO2` (centres undefined), the carcinogen call was “active; positive” (Species: MOUSE, Strain/Sex: CD-1/FEMALE, Route: ORAL, Dose: 0.083% IN DIET FROM D 1 TO 10, 0.17% FROM D 11 TO 20, 0.55% THEREAFTER TO 12 MO, Tumor Site: Type of Lesion: LIVER: HEPATOCELLULAR CARCINOMA); “active; positive” (Species: MOUSE, Strain/Sex: CD-1/MALE, Route: SUBCUTANEOUS, Dose: TOTAL DOSE: 3.18 UMOL IN TRIOCTANOIN OVER 22 D, Tumor Site: Type of Lesion: LIVER: HEPATOCELLULAR CARCINOMA); “active; positive” (Species: RAT, Strain/Sex: STRAIN-CD/MALE, Route: ORAL, Dose: 0.25% IN DIET FOR 17 MO, 0.55% IN DIET FOR 10 MO, Tumor Site: Type of Lesion: LIVER: HEPATOCELLULAR CARCINOMA).

`C/C=C/c1ccc(OC)cc1`: the carcinogen call runs as follows: (Species: MOUSE, Strain/Sex: B6C3F1/MALE, Route: INTRAPERITONEAL, Dose: 0, 0.5 UMOL/G BW ONCE (STUDY DURATION: 10-11 MONTHS)) “inactive; negative”; (Species: MOUSE, Strain/Sex: CD-1/FEMALE, Route: DERMAL, Dose: 0, 5 UMOL 1X/WK FOR 3 WK BEGINNING 24 HR POST FIRST TPA DOSE (2.5 UG IN 0.1 ML ACETONE), FOLLOWED BY 2.5 UG TPA IN 0.1 M, Tumor Site: Type of Lesion: SKIN: PAPILLOMA) “inactive; negative”; (Species: RAT, Strain/Sex: SPRAGUE-DAWLEY/FEMALE, Route: ORAL, Dose: 0, 0.25, 0.5, 1% IN DIET FOR 117 WK (STUDY DURATION: 121 WK), Dose: 0, 0.25, 0.5, 1% IN DIET FOR 117 WK (STUDY DURATION: 121 WK), Tumor Site: Type of Lesion: LIVER: HEPTOCELLULAR CARCINOMA) “active; positive”; (Species: RAT, Strain/Sex: SPRAGUE-DAWLEY/MALE, Route: ORAL, Dose: 0, 0.25, 0.5, 1.0% IN DIET FOR 117 WK (STUDY DURATION: 121 WK), Dose: 0, 0.25, 0.5, 1.0% IN DIET FOR 117 WK (STUDY DURATION: 121 WK)) “inactive; negative”.

Take `O=[N+]([O-])NC1=NCCN1Cc1ccc(Cl)nc1`: the carcinogen call reads like this: (Species: Mouse, Strain/Sex: B6C3F1/Female (60/Group), Route: Oral, Dose: 0, 100, 330, 1000 ppm and 0, 2000 ppm (2 related studies) of 95.3% imidacloprid in diet for 24 mo, study duration 24 mo, Dose: 0, 100, 330, 1000 ppm and 0, 2000 ppm (2 related studies) of 95.3% imidacloprid in diet for 24 mo, study duration 24 mo) “inactive; negative”; (Species: Mouse, Strain/Sex: B6C3F1/Male (60/Group), Route: Oral, Dose: 0, 100, 330, 1000 ppm and 0, 2000 ppm (2 related studies) of 95.3% imidacloprid in diet for 24 mo, study duration 24 mo, Dose: 0, 100, 330, 1000 ppm and 0, 2000 ppm (2 related studies) of 95.3% imidacloprid in diet for 24 mo, study duration 24 mo) “inactive; negative”; (Species: Rat, Strain/Sex: Wistar/Female (60/Group), Route: Oral, Dose: 0, 100, 300, 900 ppm and 0;1800 ppm (2 related studies) of 94.3% imidacloprid in diet for 24 mo, study duration 24 mo, Dose: 0, 100, 300, 900 ppm and 0;1800 ppm (2 related studies) of 94.3% imidacloprid in diet for 24 mo, study duration 24 mo) “inactive; negative”; (Species: Rat, Strain/Sex: Wistar/Male (60/Group), Route: Oral, Dose: 0, 100, 300, 900 ppm and 0, 1800 ppm (2 related studies) of 94.3% imidacloprid in diet for 24 mo, study duration 24 mo, Dose: 0, 100, 300, 900 ppm and 0, 1800 ppm (2 related studies) of 94.3% imidacloprid in diet for 24 mo, study duration 24 mo, Tumor Site: Type of Lesion: Liver: Cholangiocellular carcinoma (2/60 at 1800 ppm vs 0/60 all other groups)) “active; positive”.

`CC(=O)Nc1ccc(CC(=O)O)cc1`: the carcinogen call by setting is: (Species: MOUSE, Strain/Sex: B6C3F1/FEMALE, Route: ORAL, Dose: 0;300, 1000, 3000 MG/KG IN DIET FOR 78 WK (STUDY DURATION: 78 WK), Dose: 0;300, 1000, 3000 MG/KG IN DIET FOR 78 WK (STUDY DURATION: 78 WK)) “inactive; negative”; (Species: MOUSE, Strain/Sex: B6C3F1/MALE, Route: ORAL, Dose: 0, 300, 1000, 3000 MG/KG IN DIET FOR 78 WK (STUDY DURATION: 78 WK), Dose: 0, 300, 1000, 3000 MG/KG IN DIET FOR 78 WK (STUDY DURATION: 78 WK)) “inactive; negative”; (Species: RAT, Strain/Sex: F344/FEMALE, Route: ORAL, Dose: 0, 300, 1000, 3000 MG/KG/D IN DIET FOR 104 WK (STUDY DURATION: 104 WK), Dose: 0, 300, 1000, 3000 MG/KG/D IN DIET FOR 104 WK (STUDY DURATION: 104 WK)) “inactive; negative”; (Species: RAT, Strain/Sex: F344/MALE, Route: ORAL, Dose: 0, 300, 1000, 3000 MG/KG/D IN DIET FOR 104 WK (STUDY DURATION: 104 WK), Dose: 0, 300, 1000, 3000 MG/KG/D IN DIET FOR 104 WK (STUDY DURATION: 104 WK)) “inactive; negative”.

`CCCI`: the carcinogen call (Species: MOUSE, Route: INTRAPERITONEAL, Tumor Site: Type of Lesion: LUNG) was “active; positive”.
